Molecules are shown by their SMILES.

In one test the test system is SNB-19. As to the kind of experiment: Growth inhibition of human SNB19 cells at 10 uM after 48 hrs by sulforhodamine B assay relative to control. The class given is functional. Conditions: SNB-19, 48 h, read-out: GI. Background: The SRB assay estimates cell density from bound dye.
`COc1ccc(/C=C2\Oc3c(c(OC)c4ccoc4c3CN3CCOCC3)C2=O)cc1`: the inhibition of growth at 10 µM was 56.4 to 65.2%.

The next test relates to SN12C. Kind of test: Growth inhibition of human SN12C cells at 10 uM after 48 hrs by sulforhodamine B assay relative to control. In kind it is functional. Conditions: read-out: GI.
Consider `COc1ccc(/C=C2\Oc3c(c(OC)c4ccoc4c3CN3CCOCC3)C2=O)cc1`, for which the inhibition of growth at 10 µM was in the range of 56.4 to 65.2%.

The subject of another test is SW-620. As to the kind of experiment: Growth inhibition of human SW620 cells at 10 uM after 48 hrs by sulforhodamine B assay relative to control. In kind it is functional. Conditions: SW-620, 48 h, read-out: GI.
`COc1ccc(/C=C2\Oc3c(c(OC)c4ccoc4c3CN3CCOCC3)C2=O)cc1`: the inhibition of growth at 10 µM fell in the range of 56.4 to 65.2%.

Another test deals with NCI/ADR-RES. Kind of test: Growth inhibition of human NCI-ADR-RES cells at 10 uM after 48 hrs by sulforhodamine B assay relative to control. The class given is functional. Conditions: read-out: GI.
Take `COc1ccc(/C=C2\Oc3c(c(OC)c4ccoc4c3CN3CCOCC3)C2=O)cc1`: the inhibition of growth at 10 µM lay in the range of 56.4 to 65.2%.

In the next test the test system is NCI-H322M. Kind of test: Growth inhibition of human NCI-H322M cells at 10 uM after 48 hrs by sulforhodamine B assay relative to control. In kind it is functional. Conditions: read-out: GI.
For the compound `COc1ccc(/C=C2\Oc3c(c(OC)c4ccoc4c3CN3CCOCC3)C2=O)cc1`, the inhibition of growth at 10 µM lay within 56.4 to 65.2%.

The subject of another test is K562. Kind of test: Growth inhibition of human K562 cells at 10 uM after 48 hrs by sulforhodamine B assay relative to control. The class given is functional. Conditions: K562, 48 h, read-out: GI.
On to `COc1ccc(/C=C2\Oc3c(c(OC)c4ccoc4c3CN3CCOCC3)C2=O)cc1`, for which the inhibition of growth at 10 µM was in the range of 56.4 to 65.2%.

The next test concerns MOLT-4. Kind of test: Growth inhibition of human MOLT4 cells at 10 uM after 48 hrs by sulforhodamine B assay relative to control. Conditions: MOLT-4, 48 h, read-out: GI. In kind it is functional.
For the compound `COc1ccc(/C=C2\Oc3c(c(OC)c4ccoc4c3CN3CCOCC3)C2=O)cc1`, the inhibition of growth at 10 µM was in the range of 56.4 to 65.2%.

The subject of another test is T47D. Kind of test: Growth inhibition of human T47D cells at 10 uM after 48 hrs by sulforhodamine B assay relative to control. Conditions: read-out: GI. The class given is functional.
In the case of `COc1ccc(/C=C2\Oc3c(c(OC)c4ccoc4c3CN3CCOCC3)C2=O)cc1`, the inhibition of growth at 10 µM was in the range of 56.4 to 65.2%.

Another test has as its system SK-MEL-5. As to the kind of experiment: Growth inhibition of human SK-MEL-5 cells at 10 uM after 48 hrs by sulforhodamine B assay relative to control. The class given is functional. Conditions: SK-MEL-5, 48 h, read-out: GI.
In the case of `COc1ccc(/C=C2\Oc3c(c(OC)c4ccoc4c3CN3CCOCC3)C2=O)cc1`, the inhibition of growth at 10 µM fell in the range of 56.4 to 65.2%.

The subject of a further test is RPMI-8226. As to the kind of experiment: Growth inhibition of human RPMI8226 cells at 10 uM after 48 hrs by sulforhodamine B assay relative to control. Conditions: RPMI-8226, 48 h, read-out: GI. In kind it is functional.
On to `COc1ccc(/C=C2\Oc3c(c(OC)c4ccoc4c3CN3CCOCC3)C2=O)cc1`, for which the inhibition of growth at 10 µM was 56.4 to 65.2%.

Another test deals with HCT-15. As to the kind of experiment: Growth inhibition of human HCT15 cells at 10 uM after 48 hrs by sulforhodamine B assay relative to control. The class given is functional. Conditions: HCT-15, 48 h, read-out: GI.
Turning to `COc1ccc(/C=C2\Oc3c(c(OC)c4ccoc4c3CN3CCOCC3)C2=O)cc1`, the inhibition of growth at 10 µM lay within 56.4 to 65.2%.

For the next test, the system named is KM12. As to the kind of experiment: Growth inhibition of human KM12 cells at 10 uM after 48 hrs by sulforhodamine B assay relative to control. In kind it is functional. Conditions: KM12, 48 h, read-out: GI.
For the compound `COc1ccc(/C=C2\Oc3c(c(OC)c4ccoc4c3CN3CCOCC3)C2=O)cc1`, the inhibition of growth at 10 µM was in the range of 56.4 to 65.2%.

A further test relates to HT-29. Kind of test: Growth inhibition of human HT-29 cells at 10 uM after 48 hrs by sulforhodamine B assay relative to control. The class given is functional. Conditions: HT-29, 48 h, read-out: GI.
Turning to `COc1ccc(/C=C2\Oc3c(c(OC)c4ccoc4c3CN3CCOCC3)C2=O)cc1`, the inhibition of growth at 10 µM was in the range of 56.4 to 65.2%.

A further test deals with OVCAR-4. As to the kind of experiment: Growth inhibition of human OVCAR4 cells at 10 uM after 48 hrs by sulforhodamine B assay relative to control. In kind it is functional. Conditions: OVCAR-4, 48 h, read-out: GI.
For `COc1ccc(/C=C2\Oc3c(c(OC)c4ccoc4c3CN3CCOCC3)C2=O)cc1`, the inhibition of growth at 10 µM fell in the range of 56.4 to 65.2%.

The next test concerns NCI-H226. As to the kind of experiment: Growth inhibition of human NCI-H226 cells at 10 uM after 48 hrs by sulforhodamine B assay relative to control. In kind it is functional. Conditions: NCI-H226, 48 h, read-out: GI.
`COc1ccc(/C=C2\Oc3c(c(OC)c4ccoc4c3CN3CCOCC3)C2=O)cc1`: the inhibition of growth at 10 µM fell in the range of 56.4 to 65.2%.

Another test has as its system NCI-H23. Kind of test: Growth inhibition of human NCI-H23 cells at 10 uM after 48 hrs by sulforhodamine B assay relative to control. The class given is functional. Conditions: NCI-H23, 48 h, read-out: GI.
As for `COc1ccc(/C=C2\Oc3c(c(OC)c4ccoc4c3CN3CCOCC3)C2=O)cc1`, the inhibition of growth at 10 µM is 56.4 to 65.2%.

For a further test, the system named is PC-3. Kind of test: Growth inhibition of human PC3 cells at 10 uM after 48 hrs by sulforhodamine B assay relative to control. In kind it is functional. Conditions: PC-3, 48 h, read-out: GI.
For the compound `COc1ccc(/C=C2\Oc3c(c(OC)c4ccoc4c3CN3CCOCC3)C2=O)cc1`, the inhibition of growth at 10 µM is 56.4 to 65.2%.

Another test concerns HCC 2998. As to the kind of experiment: Growth inhibition of human HCC2998 cells at 10 uM after 48 hrs by sulforhodamine B assay relative to control. Conditions: HCC 2998, 48 h, read-out: GI. The class given is functional.
As to `COc1ccc(/C=C2\Oc3c(c(OC)c4ccoc4c3CN3CCOCC3)C2=O)cc1`, the inhibition of growth at 10 µM lay in the range of 56.4 to 65.2%.

The next test deals with OVCAR-5. Kind of test: Growth inhibition of human OVCAR5 cells at 10 uM after 48 hrs by sulforhodamine B assay relative to control. In kind it is functional. Conditions: OVCAR-5, 48 h, read-out: GI.
Turning to `COc1ccc(/C=C2\Oc3c(c(OC)c4ccoc4c3CN3CCOCC3)C2=O)cc1`, the inhibition of growth at 10 µM lay within 56.4 to 65.2%.

(Values after ChEMBL document CHEMBL4613211, “Aurone: A biologically attractive scaffold as anticancer agent” (Eur J Med Chem, 2019).)
